Assays:
[1] = molecular target: Platelet-derived growth factor receptor beta (Homo sapiens, UniProt P09619); experiment: Inhibition of human PDGFRbeta using biotin labeled substrate after 1 hr by HTFR assay
[2] = molecular target: Vascular endothelial growth factor receptor 2 (Homo sapiens, UniProt P35968)
Description: Inhibition of human KDR using biotin labeled substrate after 1 hr by HTFR assay

HUVEC = experiment: Antiproliferative activity against HUVEC after 72 hrs by cell titer glo-based fluorescence assay; details: Homo sapiens
MCF7 = experiment: Antiproliferative activity against human MCF7 cells after 72 hrs by cell titer glo-based fluorescence assay; details: MCF7, 72 h
MV4-11 = experiment: Antiproliferative activity against human MV4-11 cells after 72 hrs by cell titer glo-based fluorescence assay; details: MV4-11, 72 h
[3] = molecular target: T1, Receptor-type tyrosine-protein kinase FLT3 (Homo sapiens, UniProt P36888)
T1 sequence (P36888 whole entry): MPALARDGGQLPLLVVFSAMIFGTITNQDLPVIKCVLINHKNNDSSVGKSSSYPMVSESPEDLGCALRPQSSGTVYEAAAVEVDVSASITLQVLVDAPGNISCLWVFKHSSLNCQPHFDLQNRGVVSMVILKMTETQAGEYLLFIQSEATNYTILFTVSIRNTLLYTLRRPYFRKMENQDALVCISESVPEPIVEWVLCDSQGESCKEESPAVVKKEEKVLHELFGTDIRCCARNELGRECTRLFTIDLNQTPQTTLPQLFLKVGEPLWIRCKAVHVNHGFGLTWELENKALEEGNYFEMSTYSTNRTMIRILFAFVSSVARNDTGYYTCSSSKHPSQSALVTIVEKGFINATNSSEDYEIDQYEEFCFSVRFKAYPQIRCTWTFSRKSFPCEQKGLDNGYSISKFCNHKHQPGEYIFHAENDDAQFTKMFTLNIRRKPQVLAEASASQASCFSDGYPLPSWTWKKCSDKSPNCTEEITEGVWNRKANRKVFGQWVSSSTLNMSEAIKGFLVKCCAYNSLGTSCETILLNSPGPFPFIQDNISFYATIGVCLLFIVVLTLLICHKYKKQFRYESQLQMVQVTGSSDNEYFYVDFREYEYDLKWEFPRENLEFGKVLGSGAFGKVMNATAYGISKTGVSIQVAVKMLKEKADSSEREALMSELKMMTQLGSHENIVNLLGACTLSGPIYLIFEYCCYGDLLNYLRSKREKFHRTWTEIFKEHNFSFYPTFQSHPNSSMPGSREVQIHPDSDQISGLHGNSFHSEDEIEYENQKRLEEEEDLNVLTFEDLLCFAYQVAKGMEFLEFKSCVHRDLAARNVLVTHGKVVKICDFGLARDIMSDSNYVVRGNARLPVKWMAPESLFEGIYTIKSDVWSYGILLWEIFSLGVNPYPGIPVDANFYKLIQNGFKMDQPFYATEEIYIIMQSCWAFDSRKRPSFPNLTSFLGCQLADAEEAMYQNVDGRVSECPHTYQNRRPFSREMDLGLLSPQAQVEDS
Description: Inhibition of human FLT3 using biotin labeled substrate after 1 hr by HTFR assay

Vascular endothelial growth factor receptor 2, sequence (P35968 whole entry): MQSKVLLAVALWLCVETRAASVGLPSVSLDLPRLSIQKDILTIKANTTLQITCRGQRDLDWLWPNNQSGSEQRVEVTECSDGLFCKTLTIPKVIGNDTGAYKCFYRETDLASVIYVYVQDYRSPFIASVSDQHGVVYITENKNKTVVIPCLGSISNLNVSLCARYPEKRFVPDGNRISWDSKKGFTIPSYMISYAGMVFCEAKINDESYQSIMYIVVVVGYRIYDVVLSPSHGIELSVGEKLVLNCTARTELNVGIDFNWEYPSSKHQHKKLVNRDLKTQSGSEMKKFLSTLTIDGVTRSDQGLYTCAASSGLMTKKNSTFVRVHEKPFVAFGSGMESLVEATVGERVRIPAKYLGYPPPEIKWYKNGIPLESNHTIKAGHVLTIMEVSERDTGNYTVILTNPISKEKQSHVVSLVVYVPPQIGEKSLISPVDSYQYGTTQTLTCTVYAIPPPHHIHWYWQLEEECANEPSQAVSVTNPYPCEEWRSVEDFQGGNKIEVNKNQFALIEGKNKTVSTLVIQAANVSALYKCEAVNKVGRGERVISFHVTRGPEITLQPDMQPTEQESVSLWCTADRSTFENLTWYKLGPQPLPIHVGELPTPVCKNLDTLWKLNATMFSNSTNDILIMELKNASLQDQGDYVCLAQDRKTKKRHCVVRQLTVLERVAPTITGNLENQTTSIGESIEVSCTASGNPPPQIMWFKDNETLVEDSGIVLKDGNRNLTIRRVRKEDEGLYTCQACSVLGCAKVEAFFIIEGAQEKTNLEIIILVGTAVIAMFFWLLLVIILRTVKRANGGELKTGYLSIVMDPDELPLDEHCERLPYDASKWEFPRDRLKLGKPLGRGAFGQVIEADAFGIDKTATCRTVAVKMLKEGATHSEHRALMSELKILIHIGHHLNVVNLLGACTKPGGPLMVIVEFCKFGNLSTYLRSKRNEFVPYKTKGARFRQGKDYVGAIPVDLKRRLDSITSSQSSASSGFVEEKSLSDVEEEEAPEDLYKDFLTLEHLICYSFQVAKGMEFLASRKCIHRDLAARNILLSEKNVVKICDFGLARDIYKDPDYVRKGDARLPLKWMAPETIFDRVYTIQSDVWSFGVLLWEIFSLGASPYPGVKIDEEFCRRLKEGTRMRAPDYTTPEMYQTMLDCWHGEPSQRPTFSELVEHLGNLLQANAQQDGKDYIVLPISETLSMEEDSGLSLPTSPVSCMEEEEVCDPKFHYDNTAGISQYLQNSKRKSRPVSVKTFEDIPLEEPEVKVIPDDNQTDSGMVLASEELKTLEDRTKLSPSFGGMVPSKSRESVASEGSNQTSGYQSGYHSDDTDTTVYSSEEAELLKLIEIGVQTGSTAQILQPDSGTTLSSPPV
Platelet-derived growth factor receptor beta, sequence (P09619 whole entry): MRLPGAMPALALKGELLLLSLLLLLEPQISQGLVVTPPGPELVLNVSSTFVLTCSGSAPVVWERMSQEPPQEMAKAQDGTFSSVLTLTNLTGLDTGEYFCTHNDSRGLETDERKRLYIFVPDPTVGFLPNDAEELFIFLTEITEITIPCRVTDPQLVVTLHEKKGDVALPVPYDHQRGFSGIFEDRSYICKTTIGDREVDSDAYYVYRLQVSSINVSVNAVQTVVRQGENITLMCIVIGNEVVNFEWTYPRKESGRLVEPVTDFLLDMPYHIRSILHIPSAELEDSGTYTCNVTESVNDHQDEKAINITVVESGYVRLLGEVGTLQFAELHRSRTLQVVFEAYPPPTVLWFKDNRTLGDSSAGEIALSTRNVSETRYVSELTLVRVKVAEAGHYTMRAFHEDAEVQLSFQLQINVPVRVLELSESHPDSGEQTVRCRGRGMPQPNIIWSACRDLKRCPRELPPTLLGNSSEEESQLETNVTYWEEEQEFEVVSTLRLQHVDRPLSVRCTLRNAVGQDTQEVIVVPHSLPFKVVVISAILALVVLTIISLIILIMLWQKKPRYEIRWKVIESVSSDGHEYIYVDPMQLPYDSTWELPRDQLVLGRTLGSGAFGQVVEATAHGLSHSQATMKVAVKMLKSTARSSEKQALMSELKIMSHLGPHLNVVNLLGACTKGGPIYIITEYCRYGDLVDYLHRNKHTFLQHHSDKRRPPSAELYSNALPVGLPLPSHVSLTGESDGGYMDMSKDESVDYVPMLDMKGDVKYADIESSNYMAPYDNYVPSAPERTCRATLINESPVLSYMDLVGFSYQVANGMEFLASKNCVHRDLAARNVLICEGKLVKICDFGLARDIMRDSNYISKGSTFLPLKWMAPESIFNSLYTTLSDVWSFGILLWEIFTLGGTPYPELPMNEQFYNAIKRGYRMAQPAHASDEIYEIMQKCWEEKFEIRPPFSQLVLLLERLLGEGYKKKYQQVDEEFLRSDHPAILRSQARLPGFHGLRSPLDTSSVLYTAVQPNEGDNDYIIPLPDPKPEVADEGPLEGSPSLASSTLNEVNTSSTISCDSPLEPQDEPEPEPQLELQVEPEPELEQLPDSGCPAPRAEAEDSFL

Nc1onc2nc(-c3ccccc3)cc(-c3ccc(NC(=O)Nc4ccccc4)cc3)c12
IC50 ([1]; read-out: IC50): 3520 nM | IC50 [2]: Not Active

Cc1cc(-c2ccc(NC(=O)Nc3cccc(Cl)c3)cc2)c2c(N)onc2n1
IC50 ([1]; read-out: IC50): 40 nM | IC50 (HUVEC): 15200 nM | IC50 (MCF7): 39500 nM | IC50 (MV4-11): 540 nM

Nc1onc2nc(-c3ccccc3)cc(-c3ccc(NC(=O)Nc4ccc(Cl)c(C(F)(F)F)c4)cc3)c12
IC50 ([1]; read-out: IC50): 290 nM

Cc1cccc(NC(=O)Nc2ccc(-c3cc(C)nc4noc(N)c34)cc2)c1
IC50 ([1]; read-out: IC50): 8 nM | IC50 (HUVEC): 11700 nM | IC50 (MCF7): 10500 nM | IC50 (MV4-11): 120 nM

Nc1onc2nc(-c3ccccc3)cc(-c3ccc(NC(=O)Nc4ccccc4F)cc3)c12
IC50 [1]: Not Active | IC50 [3]: Not Active | IC50 [2]: Not Active

Nc1onc2nc(-c3ccccc3)cc(-c3ccc(NC(=O)Nc4cccc(F)c4)cc3)c12
IC50 ([1]; read-out: IC50): 3250 nM

C/C=C\C(=O)Nc1ccc(NC(=O)Nc2ccc(-c3cc(C)nc4noc(N)c34)cc2)cc1
IC50 [1]: Not Active | IC50 [2]: Not Active

COc1ccc(NC(=O)Nc2ccc(-c3cc(-c4ccccc4)nc4noc(N)c34)cc2)cc1
IC50 [1]: Not Active | IC50 [2]: Not Active

Cc1cc(-c2ccc(NC(=O)Nc3cccc(C(F)(F)F)c3)cc2)c2c(N)onc2n1
IC50 ([1]; read-out: IC50): 20 nM | IC50 (HUVEC): 7950 nM | IC50 (MCF7): 37400 nM | IC50 (MV4-11): 610 nM

C=C(CN1CCOCC1)C(=O)Nc1ccc(NC(=O)Nc2ccc(-c3cc(C)nc4noc(N)c34)cc2)cc1C
IC50 ([1]; read-out: IC50): 510 nM

Nc1onc2nc(-c3ccccc3)cc(-c3ccc(NC(=O)Nc4cccc(Cl)c4)cc3)c12
IC50 ([1]; read-out: IC50): 2230 nM

Cc1cc(-c2ccc(NC(=O)Nc3ccccc3Cl)cc2)c2c(N)onc2n1
IC50 ([1]; read-out: IC50): 820 nM

Cc1ccc(F)c(NC(=O)Nc2ccc(-c3cccc4[nH]nc(N)c34)cc2)c1 [LINIFANIB]
IC50 (HUVEC): 40100 nM | IC50 (MCF7): 17000 nM | IC50 (MV4-11): 690 nM

C/C=C\C(=O)Nc1ccc(NC(=O)Nc2ccc(-c3cc(C)nc4noc(N)c34)cc2)cc1C
IC50 [1]: Not Active | IC50 [2]: Not Active

Cc1ccc(NC(=O)Nc2ccc(-c3cc(-c4ccccc4)nc4noc(N)c34)cc2)cc1
IC50 ([1]; read-out: IC50): 1260 nM | IC50 [2]: Not Active

C=CC(=O)Nc1ccc(NC(=O)Nc2ccc(-c3cc(-c4ccccc4)nc4noc(N)c34)cc2)cc1
IC50 [1]: Not Active | IC50 [3]: Not Active | IC50 [2]: Not Active

Cc1cc(-c2ccc(NC(=O)Nc3ccc(Cl)c(C(F)(F)F)c3)cc2)c2c(N)onc2n1
IC50 ([1]; read-out: IC50): 20 nM | IC50 (HUVEC): 12600 nM | IC50 (MCF7): 28800 nM | IC50 (MV4-11): 340 nM

Nc1onc2nc(-c3ccccc3)cc(-c3ccc(NC(=O)Nc4ccc(F)cc4)cc3)c12
IC50 ([1]; read-out: IC50): 3780 nM

Cc1cccc(NC(=O)Nc2ccc(-c3cc(-c4ccccc4)nc4noc(N)c34)cc2)c1
IC50 ([1]; read-out: IC50): 1230 nM
